{
  "source": "patent US20020034725A1",
  "about": "“SENSITIZATION OF CELLS TO RADIATION AND AND CHEMOTHERAPY” (priority 1996, published 2002)",
  "key": {"[1]": {"system": "murine prostate tumor cells cultured from a metastic lung nodule", "test": "Surviving fraction at 2 Gray, murine prostate tumor cells", "format": "cell-based, mouse", "details": "5 μM FTI-277", "description": "FIG. 14C is a series of graphs depicting the effect of 5 μM FTI-277 and 2 Gray irradiation on murine prostate tumor cells cultured from a metastic lung nodule. Cells were referred at 24 hours following irradiation in order to dilute the concentration of the inhibitor to 0.5 μM. The surviving cell fraction was assessed as described in FIG. 14B. The correlation coefficient for linear regression analysis (r^2) was greater than 0.95 in all cases."}, "[2]": {"system": "mouse prostate tumor cells transformed with H-ras^v12 and myc", "test": "Radiation induced apoptosis of mouse prostate tumor cells", "format": "cell-based", "details": "doses which inhibited ras farnesylation, 10 Gray", "description": "FIG. 13B is a graph depicting the effects of the inhibitor, FTI-277, at the concentrations indicated (μM) on radiation induced apoptosis of prostate tumor cells. Cells were treated with FTI-277 for 24 hours before irradiation with 10 Gray. Apoptosis was quantitated 24 hours after irradiation by scoring for changes in nuclear morphology following staining of the cells with propidium iodide. Panel A depicts prostate tumor cells cultured from a primary tumor. Panel B depicts prostate tumor cells cultured from an isolated metastasis derived from the tumor.\n3×10^3 cells/well in 24-well plates were allowed to attach for 12 hours and were then treated with medium containing FTI-277 in DMSO or an equivalent volume of DMSO without inhibitor. Twenty four hours after irradiation with 10 Gray using the irradiator described above, both adherent and non-adherent cells were harvested. Cells were stained with propidium iodide (Muschel et al., 1995, Cancer Res. 55:995-998). A minimum of three independent fields of 100 cells were counted for each sample. Scoring of samples was performed in a double blind manner."}, "H-ras": {"system": "H-ras", "test": "H-ras prenylation in human colon carcinomas grown in nude mice", "format": "in vivo, mouse", "details": "SW480 and LoVo tumors in nude mice, two intraperitoneal injections of 50 mg/kg", "description": "Expression of H-ras was detected by Western blot analysis using anti-H-ras monoclonal antibody of lysates of the human colon adenocarcinomas, SW480 and LoVo, grown in nude mice. Lysates were obtained from tumors excised from a vehicle (DMSO) treated mouse (Lane 1) and mice treated twice with intraperitoneal injections of 50 mg/kg of FTI-277 18 hours after treatment was initiated (Lanes 2 and 3). Lane 1 and 2: SW480, Lane 3: LoVo. The arrow denotes the migration of unfarnesylated H-ras.\nTo examine the effectiveness of prenylation inhibitors in vivo in an animals, both rodent and human tumor responses to these inhibitors were examined in tumor grafts growing on nude mice. The protocols described in Hoffinan (1992, Curr, Perspect. on Molec. & Cell. Oncol. 1:311-326) were followed to establish and grow tumors in nude mice.\nTo perform the assay, tumors were implanted and allowed to grow to approximately 125 mm^3. Mice having these tumors were then administered 50 mg/kg FTI-277 by intraperitoneal injection. Controls included mice which were injected with an equal volume of drug-free carrier solution. Two injections were given to each mouse, one at 18 hours and a second at 5 hours prior to sacrificing each mouse. The tumor ras prenylation status of the mice was subsequently assessed as described herein."}, "H-ras^v12": {"system": "H-ras^v12", "test": "Western blot of H-ras farnesylation in H-ras transformed REF cells (3.7, 4R, 5R)", "format": "cell-based, rat", "from_the_text": "(§1) The oncogene-transfected cells used in this study were all derived from early passage rat embryo fibroblast (REF) by transfection with the pEJ plasmid containing the H-ras gene isolated from the EJ bladder carcinoma. This vector was introduced by calcium phosphate DNA transfer into primary REF, either alone or together with the pMC29 vector containing v-myc. One clone containing both the introduced H-ras gene and the v-myc genes is 3.7 (McKenna et al., 1990, Cancer Res. 50:97-102). 4R and 5R cells were obtained as rare transformants after transfection with the pEJ plasmid alone (McKenna et al., 1993, supra). MR4 cells were immortalized by transfection with an expression vector comprising v-myc linked to a neomycin-resistant selectable marker (McKenna et al., 1991, Radiat. Res. 125:283-287). REF-GG cells were obtained by transforming REF cells with a chimeric H-ras(v12) in which the CAAX motif is CVLL. All cell lines were mycoplasma free.\nCells were lysed in culture dishes with 1 x reducing Laemmli sample buffer. Samples were boiled, sheared and clarified by centrifugation at 14,000 rpm in a microfuge before storage at −20° C. Samples containing equal amounts of protein were separated on a 12% SDS polyacrylamide gel and electrophoretically transferred to nitrocellulose membranes. Membranes were blocked for 1-2 hours in PBS containing 0.1% Tween-20 and 5% powdered milk before antibody addition. Membranes were probed with monoclonal pan-ras antibody AB-4 (Oncogene Science, Uniondale, N.Y.) at a concentration of 0.5 μg/ml, or with monoclonal H-ras antibody LA069 (1:5000 dilution; Quality Biotech, Camden, N.J.). Detection of protein was accomplished using the ECL chemiluminescence kit (Amersham, Arlington Heights, Ill.). Images were digitized using an Arcus II scanner, and figures were assembled using Adobe Photoshop 3.0.\nTransformed REF cells derived from the R5 cell line were treated with 5 μm FTI-277 to establish a time course for the accumulation of unfarnesylated H-ras. Prenylated forms of ras migrate more rapidly than unprenylated ras on SDSpolyacrylamide gels (Gutierrez et al., 1989, EMBO J. 8:1093-1098; Farh et al., 1995, Arch. Biochem. Biophys. 18:113-121). This shift in motility was used to assess the prenylation status of H-ras after farnesyltransferase inhibitor treatment."}, "[3]": {"system": "SW480 colon carcinoma cells", "test": "Clonogenic radiation survival of SW480 cells", "format": "cell-based, human", "details": "30 μM FTI-277, 24 hours before irradiation", "description": "SW480 cells were treated for 24 hours with 30 μM FTI-277 before irradiation. Clonogenic survival was subsequently assessed in the cells. Treatment with the inhibitor was maintained for 24 hours after irradiation, at which time medium was replaced with inhibitor free medium. Control cells were treated as above with diluent. Open squares: control cells; closed squares: FTI-277 treated cells.\nFIG. 18B is a graph depicting a reduction in the radiation survival of SW480 cells following inhibition of K-ras prenylation by FTI-277 and GGTI-298. SW480 cells were treated for 24 hours with 5 μM FTI-277 and 8 μM GGTI-298 before irradiation and assessment of clonogenic survival. Inhibitor treatment was maintained for 24 hours after irradiation, at which time the medium was replaced with inhibitor free medium. Control cells were treated as above with an equal amount of drug-free diluent. Open squares: control cells; closed squares: FTI and GGTI treated cells."}, "H-ras^v12 CVLL": {"system": "H-ras^v12 CVLL", "test": "Western blot of prenylation of chimeric H-ras in REF-GG cells", "format": "cell-based, rat", "details": "up to 10 μM", "from_the_text": "as §1\nCells were lysed in culture dishes with 1 x reducing Laemmli sample buffer. Samples were boiled, sheared and clarified by centrifugation at 14,000 rpm in a microfuge before storage at −20° C. Samples containing equal amounts of protein were separated on a 12% SDS polyacrylamide gel and electrophoretically transferred to nitrocellulose membranes. […]"}, "FTase": {"molecular_target": "FTase (Homo sapiens, UniProt P49354+P49356)", "details": "cited from earlier work"}},
  "data": [
    {"compound": "COC(=O)[C@H](CCSC)NC(=O)c1ccc(NC[C@@H](N)CS)cc1-c1ccccc1", "note": "[FTI-277]", "values": [
      {"measurement": "survival after 2 Gray irradiation", "setting": "[1]", "result": 0.36},
      {"measurement": "radiation-induced apoptosis", "setting": "[2]", "result": "significant increase in apoptosis"},
      {"measurement": "H-ras migration in tumors", "setting": "H-ras", "result": "altered H-ras migration"},
      {"measurement": "H-ras farnesylation status", "setting": "H-ras^v12; 3.7, 4R and 5R cells, 2.5 to 10 μm, 24 hours", "result": "primarily unfarnesylated"},
      {"measurement": "time by which detectable farnesylated H-ras was observed after removal of inhibitor", "setting": "H-ras^v12; 3.7 cells, 5 μm for 30 hours, then removed", "result": "≤ 2", "unit": "h"},
      {"measurement": "H-ras in the farnesylated form after removal of inhibitor", "setting": "H-ras^v12; 3.7 cells, 6 hours after removal", "result": "about 50%"},
      {"measurement": "form of H-ras after removal of inhibitor", "setting": "H-ras^v12; 3.7 cells, 24 hours after removal", "result": "majority of the H-ras in the cells was in the farnesylated form"},
      {"measurement": "time by which conversion of H-ras to the slower moving form was observed", "setting": "H-ras^v12; 5R cells, 5 μm FTI-277", "result": "≤ 4", "unit": "h"},
      {"measurement": "detectable H-ras in the unfarnesylated form", "setting": "H-ras^v12; 5R cells, 5 μm FTI-277, 6-8 hours after addition", "result": "approximately 50%"},
      {"measurement": "time to reversal of accumulation of unfarnesylated H-ras after removal of inhibitor", "setting": "H-ras^v12; H-ras transformed REF cells", "result": "≤ 24", "unit": "h"},
      {"measurement": "radiation survival", "setting": "[3]", "result": "reduction in radiation survival"},
      {"measurement": "mobility of H-ras-CVLL", "setting": "H-ras^v12 CVLL", "result": "no change in the mobility of H-ras-CVLL"},
      {"measurement": "FTase inhibition", "setting": "FTase", "result": "inhibited Ftase activity"}
    ]}
  ]
}
